This is an account of results in patent US9221822B2, “Thiazolopyrimidine modulators as immunosuppressive agents” (Katholieke Universiteit Leuven, K.U.Leuven R&D, priority 2009, dated 2015).

pIC50: −log10 of the molar value.

What is called pIC50 is −log10 of the IC50, conventionally taken in molar units. Read a high pIC50 as a low IC50.

One experiment has as its system Human peripheral blood mononuclear cells (PBMCs) as Responder cells, RPMI 1788 Stimulator cells. Put plainly: Mixed Lymphocyte Reaction (MLR) test. Type of experiment: cell-based. The conditions noted are these: Homo sapiens, RPMI-1788, lowest concentration giving 50% inhibition of the MLR; 6 days coculture, 3H-thymidine incorporation. The method, boiled down: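 Proliferation was read as cpm after a 1 μCi ^3H-thymidine pulse on day 5 and harvest 18 h later, then expressed as % inhibition relative to an MLR without compound. The 6-day triplicate cocultures combined 0.12×10^6 Ficoll-isolated human PBMCs with 0.045×10^6 mitomycin C-inactivated RPMI 1788 cells in RPMI 1640 with 10% FCS.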
On to `Nc1nc(N2CCN(C(=O)COc3ccc(Cl)cc3)CC2)c2cc(-c3ccccc3)sc2n1` [Example 329, 1-(4-(2-amino-6-phenylthieno[2,3-d]pyrimidin-4-yl)piperazin-1-yl)-2-(4-chlorophenoxy)ethanone], for which the pIC50 is 6.48. In turn, `Cc1cccc(NC(=O)N2CCN(c3nc(N)nc4sc(-c5ccccc5)cc34)CC2)c1` [Example 330, 4-(2-amino-6-phenylthieno[2,3-d]pyrimidin-4-yl)-N-m-tolylpiperazine-1-carboxamide] showed a pIC50 of 6.03. The molecule `Nc1nc(N2CCN(C(=O)Nc3ccc(Cl)cc3)CC2)c2cc(-c3ccccc3)sc2n1` [Example 331, 4-(2-amino-6-phenylthieno[2,3-d]pyrimidin-4-yl)-N-(4-chlorophenyl)piperazine-1-carboxamide] gave a pIC50 of 5.17. Molecule `Nc1nc(N2CCN(C(=O)COc3ccccc3)CC2)c2cc(-c3ccccc3)sc2n1` [Example 332, 1-(4-(2-amino-6-phenylthieno[2,3-d]pyrimidin-4-yl)piperazin-1-yl)-2-phenoxyethanone] showed a pIC50 of 6.11. Take `Nc1nc(N2CCCN(C(=O)COc3ccc(Cl)cc3)CC2)c2cc(-c3ccccc3)sc2n1` [Example 334, 1-(4-(2-amino-6-phenylthieno[2,3-d]pyrimidin-4-yl)-1,4-diazepan-1-yl)-2-(4-chlorophenoxy)ethanone]: the pIC50 was 5.05. Still for that read-out and setting: under `Nc1nc(N2CCCN(C(=O)c3ccc(Cl)cc3)CC2)c2cc(-c3ccccc3)sc2n1` [Example 335, (4-(2-amino-6-phenylthieno[2,3-d]pyrimidin-4-yl)-1,4-diazepan-1-yl)(4-chlorophenyl)methanone] stands less than 5.00; under `Nc1nc(N2CCN(CCOc3ccccc3)CC2)c2cc(-c3ccccc3)sc2n1` [Example 337, 4-(4-(2-phenoxyethyl)piperazin-1-yl)-6-phenylthieno[2,3-d]pyrimidin-2-amine], 5.02. In the case of `Nc1nc(N2CC[C@@H](NC(=O)c3ccc(Cl)cc3)C2)c2cc(-c3ccc(F)cc3)sc2n1` [Example 341, (R)—N-(1-(2-amino-6-(4-fluorophenyl)thieno[2,3-d]pyrimidin-4-yl)pyrrolidin-3-yl)-4-chlorobenzamide], the pIC50 is 5.14. `Nc1nc(N2CCN(C(=O)CCc3ccccc3)CC2)c2cc(-c3ccc(F)cc3)sc2n1` [Example 343, 1-(4-(2-amino-6-(4-fluorophenyl)thieno[2,3-d]pyrimidin-4-yl)piperazin-1-yl)-3-phenylpropan-1-one] had a pIC50 of 5.16. The same measure, in the same setting: under `Nc1nc(N2CCN(S(=O)(=O)Cc3ccccc3)CC2)c2cc(-c3ccc(F)cc3)sc2n1` [Example 344, 4-(4-(benzylsulfonyl)piperazin-1-yl)-6-(4-fluorophenyl)thieno[2,3-d]pyrimidin-2-amine] stands less than 5.00.

Turning to `Nc1nc(N2CCN(C(=O)C3CCCCC3)CC2)c2cc(-c3ccc(F)cc3)sc2n1` [Example 345, (4-(2-amino-6-(4-fluorophenyl)thieno[2,3-d]pyrimidin-4-yl)piperazin-1-yl)(cyclohexyl)methanone], the pIC50 is less than 5.00. `Nc1nc(N2CCN(C(=O)c3cccnc3)CC2)c2cc(-c3ccc(F)cc3)sc2n1` [Example 346, (4-(2-amino-6-(4-fluorophenyl)thieno[2,3-d]pyrimidin-4-yl)piperazin-1-yl)(pyridin-3-yl)methanone] gave a pIC50 of less than 5.00. As for `CC(C)N(C(=O)N1CCN(c2nc(N)nc3sc(-c4ccc(F)cc4)cc23)CC1)C(C)C` [Example 347, 4-(2-amino-6-(4-fluorophenyl)thieno[2,3-d]pyrimidin-4-yl)-N,N-diisopropylpiperazine-1-carboxamide], the pIC50 was 5.09.

The experiment is the same for the next values; noted with them: lowest concentration giving 50% inhibition of the MLR; 6 days coculture, 3H-thymidine incorporation.
`Nc1nc(NCc2ccccc2)c2cc(-c3ccc(F)cc3)sc2n1` [Example 327, 2-amino-4-N-benzylamino-6-(4-fluorophenyl)-thieno[2,3-d]pyrimidine] showed a pIC50 of 5.17.
